IC50 data for 29 molecules are collected here from patent US9884043B2, “RORgammaT inhibitors” (Merck Sharp & Dohme Corp., priority 2011, dated 2018).

The term IC50 denotes the concentration that inhibits the measured activity by half. Read a high IC50 as lower potency.

The target in the assay is T1, HIS-tagged RORγ-LBD (Homo sapiens, UniProt P51449).
T1 construct: HIS-tagged RORγ-LBD was recombinantly expressed in SF9 cells using a baculovirus expression system; made in house; host or cells: SF9 cells, baculovirus; crude lysate used
T1 sequence (P51449 269-508 limits assumed): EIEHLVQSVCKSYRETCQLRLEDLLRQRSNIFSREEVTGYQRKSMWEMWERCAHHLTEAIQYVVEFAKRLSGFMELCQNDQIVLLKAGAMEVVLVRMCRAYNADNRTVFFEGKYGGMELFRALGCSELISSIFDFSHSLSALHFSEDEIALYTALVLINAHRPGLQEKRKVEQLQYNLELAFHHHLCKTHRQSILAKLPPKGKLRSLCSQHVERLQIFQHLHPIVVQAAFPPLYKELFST
Briefly: TR-FRET assay (Protocol B), RORγ-LBD lysate / biotinylated SRC1-2 LXXLL peptide. It is filed as biochemical. The conditions noted are these: unpurified RORγ-LBD lysate ~10 nM, SRC1-2 peptide 450 nM. The text has this:
Activation of RORgammaT activity can be measured using e.g. biochemical TR-FRET assay. In such an assay, interaction of cofactor-derived peptides with human RORgammaT-Ligand Binding Domain (LBD) can be measured.
To identify novel antagonists of RORgammaT, an assay was developed which employs the interaction of RORgammaT with its co-activator peptide SRC1_2. […] The assay was run following three slightly different protocols, i.e. Protocol A, Protocol B, and Protocol C, which are described below.
TR-Fret Assay (Protocol B)
HIS-tagged RORγ-LBD was recombinantly expressed in SF9 cells using a baculovirus expression system. The protein was not purified. Cells were lysed and the lysate was used as a source for RORγ-LBD for the assay. A 1:80 dilution of RORγ-LBD lysate in assay buffer (25 mM HEPES pH 7.0, 100 mM NaCl, 0.01% Tween, 0.1% BSA) was prepared and 5 μL was added to each well (RORγ-LBD final concentration ˜10 nM). Control wells received lysate from SF9 cells not expressing RORγ-LBD.
Compounds to be tested were diluted to 100× final test concentration in DMSO and further diluted to 4× final test concentration using assay buffer to provide the test compound mixture. An aliquot (5 μL) of the test compound mixture was added to each well.
On to `O=C(O)c1cccc(-c2nn(C(=O)c3c(Cl)cccc3C(F)(F)F)c3cccc(F)c23)c1` [Example 24E, 3-(1-(2-chloro-6-(trifluoromethyl)-benzoyl)-4-fluoro-1H-indazol-3-yl)benzoic acid], for which the IC50 lay in the range of 0.5 to 10 µM.
For `CN(C)C(=O)c1ccc2c(-c3ccc(C(=O)O)c(F)c3)nn(C(=O)c3c(Cl)cccc3C(F)(F)F)c2c1` [Example 25I, 4-(1-(2-chloro-6-(trifluoromethyl)benzoyl)-6-(dimethyl-carbamoyl)-1H-indazol-3-yl)-2-fluorobenzoic acid], the IC50 was 0.05 to 0.5 µM.
Next, `CN(CCO)C(=O)c1ccc2c(-c3ccc(C(=O)O)cc3F)nn(C(=O)c3c(Cl)cccc3C(F)(F)F)c2c1` [Example 25R, 4-(1-(2-chloro-6-(trifluoromethyl)benzoyl)-6-((2-hydroxyethyl) (methyl)carbamoyl)-1H-indazol-3-yl)-3-fluorobenzoic acid]: < 0.05 µM; `Cc1cc(C(=O)O)ccc1-c1nn(C(=O)c2c(Cl)cccc2C(F)(F)F)c2cccc(F)c12` [Example 24L, 4-(1-(2-chloro-6-(trifluoromethyl)-benzoyl)-4-fluoro-1H-indazol-3-yl)-3-methylbenzoic acid]: < 0.05 µM; `CC(C)c1cc(-c2nn(C(=O)c3c(Cl)cccc3C(F)(F)F)c3cccc(F)c23)ccc1C(=O)O` [Example 24S, 4-(1-(2-chloro-6-(trifluoromethyl)-benzoyl)-4-fluoro-1H-indazol-3-yl)-2-isopropylbenzoic acid]: 0.5 to 10 µM.
Regarding `O=C(O)c1ccc(-c2nn(C(=O)c3c(Cl)cccc3C(F)(F)F)c3cccc(F)c23)c(F)c1F` [Example 24V, 4-(1-(2-chloro-6-(trifluoromethyl)-benzoyl)-4-fluoro-1H-indazol-3-yl)-2,3-difluorobenzoic acid], the IC50 is < 0.05 µM.
For the molecule `O=C(O)c1ccc(-c2nn(C(=O)c3c(Cl)cccc3C(F)(F)F)c3cccnc23)c(Cl)c1` [Example 24AG, 3-chloro-4-(1-(2-chloro-6-(trifluoromethyl)-benzoyl)-1H-pyrazolo[4,3-b]pyridin-3-yl)benzoic acid], the IC50 was < 0.05 µM.
Next, `O=C(O)Cc1ccc(-c2nn(C(=O)c3c(Cl)cccc3C(F)(F)F)c3cccnc23)cc1` [Example 24AD, 2-(4-(1-(2-chloro-6-(trifluoromethyl)-benzoyl)-1H-pyrazolo[4,3-b]pyridin-3-yl)phenyl)acetic acid]: 0.5 to 10 µM; `O=C(c1c(Cl)cccc1C(F)(F)F)n1nc(-c2ccc(C(O)(C(F)(F)F)C(F)(F)F)cc2)c2c(F)cccc21` [Example 24D, (2-chloro-6-(tri-fluoromethyl)-phenyl)(4-fluoro-3-(4-(1,1,1,3,3,3-hexafluoro-2-hydroxypropan-2-yl)phenyl)-1H-indazol-1-yl)methanone]: 0.5 to 10 µM; `O=C(O)c1ccc(-c2nn(C(=O)c3c(Cl)cccc3C(F)(F)F)c3cc(O)ccc23)cc1` [Example 24BA, 4-(1-(2-chloro-6-(trifluoromethyl)-benzoyl)-6-hydroxy-1H-indazol-3-yl)benzoic acid]: < 0.05 µM.
As for `NCc1ccc2c(-c3ccc(C(=O)O)cc3F)nn(C(=O)c3c(Cl)cccc3C(F)(F)F)c2c1` [Example 27B, 4-(6-(aminomethyl)-1-(2-chloro-6-(trifluoromethyl)benzoyl)-1H-indazol-3-yl)-3-fluorobenzoic acid], the half-inhibitory concentration (IC50) is < 0.05 µM.
Molecule `NC(=O)c1ccc(-c2nn(C(=O)c3c(Cl)cccc3C(F)(F)F)c3cccc(F)c23)cc1` [Example 24J, 4-(1-(2-chloro-6-(trifluoromethyl)-benzoyl)-4-fluoro-1H-indazol-3-yl)benzamide] registered an IC50 of 0.05 to 0.5 µM.
Turning to `CC(O)CNC(=O)c1ccc2c(-c3ccc(C(=O)O)cc3)nn(C(=O)c3c(Cl)cccc3C(F)(F)F)c2c1` (centres unmarked) [Example 25O, 4-(1-(2-chloro-6-(trifluoromethyl)benzoyl)-6-(2-hydroxypropyl-carbamoyl)-1H-indazol-3-yl)benzoic acid], the IC50 is < 0.05 µM.
Turning to `O=C(O)Cc1ccc(-c2nn(C(=O)c3c(Cl)cccc3C(F)(F)F)c3cccc(F)c23)cc1` [Example 24G, 2-(4-(1-(2-chloro-6-(trifluoromethyl)-benzoyl)-4-fluoro-1H-indazol-3-yl)phenyl)acetic acid], the IC50 was 0.5 to 10 µM.
With `COc1cccc(F)c1C(=O)n1nc(-c2ccc(C(=O)O)cc2F)c2ncccc21` [Example 24AN, 3-fluoro-4-(1-(2-fluoro-6-methoxybenzoyl)-1H-pyrazolo[4,3-b]pyridin-3-yl)benzoic acid], the IC50 is < 0.05 µM.
With `COc1cccc(F)c1C(=O)n1nc(-c2ccc(C(=O)O)cc2F)c2c(F)cccc21` [Example 24AA, 3-fluoro-4-(4-fluoro-1-(2-fluoro-6-methoxybenzoyl)-1H-indazol-3-yl)benzoic acid], the IC50 is < 0.05 µM.
On to `O=C(O)c1ccc(-c2nn(C(=O)c3c(Cl)cccc3C(F)(F)F)c3cccnc23)c(F)c1` [Example 24C, sodium 4-(1-(2-chloro-6-(trifluoromethyl)benzoyl)-1H-pyrazolo[4,3-b]pyridin-3-yl)-3-fluorobenzoate], for which the IC50 was < 0.05 µM.
In the case of `COc1cc(C(=O)O)ccc1-c1nn(C(=O)c2c(Cl)cccc2C(F)(F)F)c2cccc(F)c12` [Example 24Q, 4-(1-(2-chloro-6-(trifluoromethyl)-benzoyl)-4-fluoro-1H-indazol-3-yl)-3-methoxybenzoic acid], the IC50 lay in the range of 0.05 to 0.5 µM.
Under `CN(C)C(=O)c1ccc2c(-c3ccc(C(=O)O)cc3)nn(C(=O)c3c(Cl)cccc3C(F)(F)F)c2c1` [Example 25B, 4-(1-(2-chloro-6-(trifluoromethyl)benzoyl)-6-(dimethyl-carbamoyl)-1H-indazol-3-yl)benzoic acid] stands < 0.05 µM; under `O=C(O)c1ccc(-c2nn(C(=O)c3c(Cl)cccc3C(F)(F)F)c3cc(CO)ccc23)cc1` [Example 24BE, 4-(1-(2-chloro-6-(trifluoromethyl)-benzoyl)-6-(hydroxymethyl)-1H-indazol-3-yl)benzoic acid], < 0.05 µM; under `NCc1ccc2c(-c3ccc(C(=O)O)cc3)nn(C(=O)c3c(Cl)cccc3C(F)(F)F)c2c1` [Example 27A, 4-(6-(aminomethyl)-1-(2-chloro-6-(trifluoromethyl)benzoyl)-1H-indazol-3-yl)benzoic acid], < 0.05 µM.
As to `O=C(O)c1cc(-c2nn(C(=O)c3c(Cl)cccc3C(F)(F)F)c3cccc(F)c23)ccc1O` [Example 24Z, 5-(1-(2-chloro-6-(trifluoromethyl)-benzoyl)-4-fluoro-1H-indazol-3-yl)-2-hydroxybenzoic acid], the 50% inhibitory concentration (IC50) is > 10 µM.
Molecule `O=C(O)c1ccc(-c2nn(C(=O)c3c(Cl)cccc3C(F)(F)F)c3cc(O)cc(F)c23)cc1` [Example 24BC, 4-(1-(2-chloro-6-(trifluoromethyl)-benzoyl)-4-fluoro-6-hydroxy-1H-indazol-3-yl)benzoic acid] gave a half-maximal inhibitory concentration (IC50) of 0.5 to 10 µM.
For `O=C(O)c1ccc(-c2nn(C(=O)c3c(Cl)cccc3C(F)(F)F)c3cc(C(=O)NCCO)ccc23)c(Cl)c1` [Example 25K, 3-chloro-4-(1-(2-chloro-6-(trifluoromethyl)benzoyl)-6-(2-hydroxyethyl-carbamoyl)-1H-indazol-3-yl)benzoic acid], the IC50 was < 0.05 µM.
As for `O=C(O)c1ccc(-c2nn(C(=O)c3c(Cl)cccc3C(F)(F)F)c3cccc(C(F)(F)F)c23)cc1` [Example 24AO, 4-(1-(2-chloro-6-(trifluoromethyl)-benzoyl)-4-(trifluoromethyl)-1H-indazol-3-yl)benzoic acid], the IC50 was < 0.05 µM.
Next, `CN(CCO)C(=O)c1ccc2c(-c3ccc(C(=O)O)cc3)nn(C(=O)c3c(Cl)cccc3C(F)(F)F)c2c1` [Example 25Q, 4-(1-(2-chloro-6-(trifluoromethyl)benzoyl)-6-((2-hydroxyethyl) (methyl)carbamoyl)-1H-indazol-3-yl)benzoic acid]: < 0.05 µM; `O=C(O)c1ccc(-c2nn(C(=O)c3c(Cl)cccc3C(F)(F)F)c3ccccc23)cc1C(F)F` [Example 28, 4-(1-(2-chloro-6-(trifluoromethyl)benzoyl)-1H-indazol-3-yl)-2-(difluoromethyl)benzoic acid]: < 0.05 µM.
Regarding `CN(C)C(=O)c1ccc2c(-c3ccc(C(=O)O)cc3F)nn(C(=O)c3c(Cl)cccc3C(F)(F)F)c2c1` [Example 25E, 4-(1-(2-chloro-6-(trifluoromethyl)benzoyl)-6-(dimethyl-carbamoyl)-1H-indazol-3-yl)-3-fluorobenzoic acid], the IC50 is < 0.05 µM.
Regarding `O=C(c1c(Cl)cccc1C(F)(F)F)n1nc(-c2ccc(C(O)(C(F)(F)F)C(F)(F)F)cc2)c2ncccc21` [Example 24AE, (2-chloro-6-(trifluoromethyl)-phenyl)(3-(4-(1,1,1,3,3,3-hexafluoro-2-hydroxypropan-2-yl)phenyl)-1H-pyrazolo[4,3-b]pyridin-1-yl)methanone], the concentration for half-maximal inhibition (IC50) lay within 0.5 to 10 µM.
